Laboratory results as given in PMC3853684 (Scientific Reports, 2013).

Key:
[1] = intravenous injection, animal-based work; cited from earlier work
[2] = cited from earlier work
[3] = monkeys, starting level, cervical puncture; cited from earlier work
[4] = Plasma OXT concentration after intranasal OXT; format: in vivo; details: male, human, inhaled or intranasal, 24 IU
[5] = cited from earlier work; remark: listed apart in the source
[6] = intranasal 16 or 24 IU; cited from earlier work
[7] = humans, cited from earlier work

CC[C@H](C)[C@@H]1NC(=O)[C@H](Cc2ccc(O)cc2)NC(=O)[C@@H](N)CSSC[C@@H](C(=O)N2CCC[C@H]2C(=O)N[C@@H](CC(C)C)C(=O)NCC(N)=O)NC(=O)[C@H](CC(N)=O)NC(=O)[C@H](CCC(N)=O)NC1=O [OXT, oxytocin]
fraction of the peptide that crossed the blood-brain barrier (BBB) [1]: approximately 0.01% | time of increases in OXT plasma concentrations ([2]; intranasal 24 IU): 30 to 40 min | time of peak elevated OXT plasma concentrations ([2]; intranasal OXT 30 IU, three male volunteers): 10 to 40 min | OXT CSF concentration before increase [3]: around 20 pg/ml | Tmax [4]: 15 min | level at 1.5 h ([4]; SD): 0.0123 ± 0.006 ng/mL | increase of half-life in CSF (compared to plasma) [5]: 30–40 fold | duration of increase in OXT saliva concentrations [6]: up to 7 h

arginine vasopressin [arginine vasopressin (AVP)]
time to increase in CSF concentrations ([7]; intranasal 40 IU): up to 60 min | increase in CSF concentrations (fold) ([7]; intranasal 80 IU): up to 4 fold | time to significant increase in CSF concentrations ([7]; intranasal 80 IU): 10 min
